Common to all, as to assay type: cell-based, human
For experiment [1], the system named is SUM-159. Nature of the experiment: Cell viability assay (CCK-8), SUM-159. Particulars: for inhibition at 5 µg/mL / IC50: Homo sapiens; for inhibition at 5 µg/mL: SUM159; for IC50: SUM159, 72 h, TNBC cell line, CCK-8, 72 h, 0.156 to 40 μM. On the procedure:
(§1) Four human TNBC cell lines (MDA-MB-231, MDA-MB-453, SUM-159, and BT-20), a non-TNBC breast cancer cell line (MCF-7) and a normal mammary epithelial cell line (MCF-10A) were cultured with DMEM (phenol free) supplemented with 2.5% CS-FBS and 1% L-Glu. 1.2 × 10^3 of cells were seeded into 384-well microplates and maintained for 24 h in an incubator at 37 °C in a 5% CO2, saturated humidified atmosphere. […] […] Then CCK-8 solution was added into cells and incubated for another 4 h. Absorbance was measured with a Microplate Reader at 450/600 nm. The IC50 values of the compounds on TNBC cell lines were derived using GraphPad Prism 5.0 (GraphPad Software, Inc., La Jolla, CA, USA).

The test system of experiment [2] is MCF-7. Put plainly: Cell viability assay (CCK-8), MCF-7. Particulars: Homo sapiens; for inhibition at 5 µg/mL: MCF7. The method, then: as §1
The subject of experiment [3] is MDA-MB-231. Put plainly: Cell viability assay (CCK-8), MDA-MB-231. The conditions noted are these: for inhibition at 5 µg/mL / IC50: Homo sapiens; for inhibition at 5 µg/mL: MDA-MB-231; for IC50: MDA-MB-231, 72 h, TNBC cell line, CCK-8, 72 h, 0.156 to 40 μM. On the procedure:
as §1

These results are taken from PMC6017705, “Discovery of N-(Naphtho[1,2-b]Furan-5-Yl) Benzenesulfonamides as Novel Selective Inhibitors of Triple-Negative Breast Cancer (TNBC)” (Molecules : A Journal of Synthetic Chemistry and Natural …, 2018).

Structures are written as SMILES.

For the compound `Cc1oc2c(cc(NS(=O)(=O)c3ccc(Cl)cc3)c3ccccc32)c1C(=O)O` [Compound 3-1], the inhibition (commonly the relative decrease from the control value, in per cent) at 5 µg/mL is -0.754% in experiment [1], -12.2% in experiment [2] and 31.4% in experiment [3].

Take `CCOC(=O)c1c(C)oc2c1cc(NS(=O)(=O)c1cc(C)c(C)cc1C)c1ccccc12` [Compound 3-2]: the inhibition at 5 µg/mL is -0.884% in experiment [1], 17.7% in experiment [2] and 24.3% in experiment [3].

On to `COC(=O)c1c(C)oc2c1cc(NS(=O)(=O)c1ccc(C(C)C)cc1)c1ccccc12` [Compound 3-4], for which the inhibition at 5 µg/mL was -0.319% in experiment [1], 14.2% in experiment [2] and 37.8% in experiment [3].

Take `COC(=O)c1c(C)oc2c1cc(NS(=O)(=O)c1ccc(C)cc1C)c1ccccc12` [Compound 3-5]: the inhibition at 5 µg/mL in experiment [1] stood at 0.757%; in experiment [2], 22%; in experiment [3], 41.1%.

`CCOC(=O)c1c(C)oc2c1cc(NS(=O)(=O)c1ccc3ccccc3c1)c1ccccc12` [Compound 3-6]: the inhibition at 5 µg/mL in experiment [1] amounted to 0.292%; in experiment [2], 7.72%; in experiment [3], 43.4%.

With `COC(=O)c1c(C)oc2c1cc(NS(=O)(=O)c1ccc3ccccc3c1)c1ccccc12` [Compound 3-7], the inhibition at 5 µg/mL in experiment [1] is 0.085%; in experiment [2], -4.73%; in experiment [3] it was 0.431%.

For the compound `CCc1ccc(S(=O)(=O)Nc2cc3c(C(=O)O)c(C)oc3c3ccccc23)cc1` [Compound 3-8], the inhibition at 5 µg/mL was 0.221% in experiment [1], -6.71% in experiment [2] and -1.13% in experiment [3].

Take `COC(=O)c1c(C)oc2c1cc(NS(=O)(=O)c1ccc(F)cc1)c1ccccc12` [Compound 3-10]: the inhibition at 5 µg/mL in experiment [1] amounted to 35.5%; in experiment [2], 34.5%; in experiment [3], 64.5%.

As for `CCOC(=O)c1c(C)oc2c1cc(NS(=O)(=O)c1ccc(CC)cc1)c1ccccc12` [Compound 3-11], the inhibition at 5 µg/mL in experiment [1] is 0.175%; in experiment [2] it was 13%; in experiment [3], 41.1%.

For the compound `CCOC(=O)c1c(C)oc2c1cc(NS(=O)(=O)c1ccc(C(=O)O)cc1)c1ccccc12` [Compound 3-13], the inhibition at 5 µg/mL in experiment [1] was -0.635%; in experiment [2], 5.14%; in experiment [3], 19.6%.

Take `COC(=O)c1c(C)oc2c1cc(NS(=O)(=O)c1ccc(C)cc1)c1ccccc12` [Compound 3-14]: the inhibition at 5 µg/mL in experiment [1] worked out at 48.2%; in experiment [2], 10.2%; in experiment [3], 62.8%.

In the case of `COC(=O)c1c(C)oc2c1cc(NS(=O)(=O)c1cc(C)ccc1C)c1ccccc12` [Compound 3-15], the inhibition at 5 µg/mL in experiment [1] amounted to 0.037%; in experiment [2], 18.5%; in experiment [3], 45.6%.

With `CCOC(=O)c1c(C)oc2c1cc(NS(=O)(=O)c1ccc(C)cc1C)c1ccccc12` [Compound 3-16], the inhibition at 5 µg/mL in experiment [1] was 0.732%; in experiment [2], 43.4%; in experiment [3], 48.2%.

On to `COC(=O)c1c(C)oc2c1cc(NS(=O)(=O)c1ccc(F)cc1C)c1ccccc12` [Compound 3-18], for which the figures for the inhibition at 5 µg/mL in experiment [1], in experiment [2] and in experiment [3] were 51.4%, 33.2% and 59.4%, respectively. Further, the values for the IC50 in experiment [1] and in experiment [3] were 24.2 µM and 5.2 µM, respectively.

With `Cc1cc(F)ccc1S(=O)(=O)Nc1cc2c(C(=O)O)c(C)oc2c2ccccc12` [Compound 3-19], the inhibition at 5 µg/mL in experiment [1] turned out to be 0.38%; in experiment [2], 16.3%; in experiment [3] it was 19.3%.

As for `CCc1ccc(S(=O)(=O)Nc2cc3c(C(=O)OC)c(C)oc3c3ccccc23)cc1` [Compound 3-20], the inhibition at 5 µg/mL in experiment [1] stood at 65.4%; in experiment [2], 31.2%; in experiment [3] it was 53.5%. Moreover, the IC50 (in general, the concentration needed to halve the response being measured) in experiment [1] was found to be 17 µM; in experiment [3], 10 µM.

On to `CCOC(=O)c1c(-c2ccccc2)oc2c1cc(NS(=O)(=O)c1ccc(CC)cc1)c1ccccc12` [Compound 3-22], for which the inhibition at 5 µg/mL was -0.556% in experiment [1], 2.24% in experiment [2] and 53.6% in experiment [3].

Turning to `CCOc1ccc(S(=O)(=O)Nc2cc3c(C(=O)OCCOC)c(C)oc3c3ccccc23)cc1` [Compound 3-23], the inhibition at 5 µg/mL in experiment [1] was 49.1%; in experiment [2], 14.7%; in experiment [3], 62%.

Take `COC(=O)c1c(C)oc2c1cc(NS(=O)(=O)c1cc(C)c(C)cc1C)c1ccccc12` [Compound 3-24]: the figures for the inhibition at 5 µg/mL in experiment [1], in experiment [2] and in experiment [3] were 0.233%, 34.9% and 46.6%, respectively.

In the case of `CCCCCOC(=O)c1c(C)oc2c1cc(NS(=O)(=O)c1ccc(OC)cc1)c1ccccc12` [Compound 3-25], the inhibition at 5 µg/mL in experiment [1] worked out at 61.9%; in experiment [2], 48.3%; in experiment [3], 39.5%.

`Cc1oc2c(cc(NS(=O)(=O)c3ccccc3)c3ccccc32)c1C(=O)OCc1ccccc1` [Compound 3-26]: the inhibition at 5 µg/mL in experiment [1] was 1.58%; in experiment [2] it was 25.6%; in experiment [3], 51%.

Consider `COC(=O)c1c(C)oc2c1cc(NS(=O)(=O)c1cccc3cccnc13)c1ccccc12` [Compound 3-27], for which the inhibition at 5 µg/mL in experiment [1] stood at 10.2%; in experiment [2], 35.5%; in experiment [3], 48.2%.

Consider `CCCc1oc2c(cc(NS(=O)(=O)c3ccc(OC)cc3)c3ccccc32)c1C(=O)OCC` [Compound 3-28], for which the inhibition at 5 µg/mL in experiment [1] was 46%; in experiment [2], 33.4%; in experiment [3], 61.9%. The IC50 in experiment [1] is 14.4 µM; in experiment [3], over 40 µM.

For the compound `COC(=O)c1c(C)oc2c1cc(NS(=O)(=O)c1ccc(Br)cc1)c1ccccc12` [Compound 3-29], the figures for the inhibition at 5 µg/mL in experiment [1], in experiment [2] and in experiment [3] were 1.32%, 14.5% and 45%, respectively.

For the compound `COC(=O)c1c(C)oc2c1cc(NS(=O)(=O)c1ccccc1)c1ccccc12` [Compound 3-30], the inhibition at 5 µg/mL in experiment [1] was 0.862%; in experiment [2], 29.3%; in experiment [3], 50.9%.

With `CCOC(=O)c1c(C)oc2c1cc(NS(=O)(=O)c1ccc(C(C)C)cc1)c1ccccc12` [Compound 3-31], the inhibition at 5 µg/mL was -1.33% in experiment [1], 2.95% in experiment [2] and 32.1% in experiment [3].

As for `Cc1oc2c(cc(NS(=O)(=O)c3ccc(C(C)C)cc3)c3ccccc32)c1C(=O)O` [Compound 3-32], the inhibition at 5 µg/mL is -0.964% in experiment [1], -7.57% in experiment [2] and 24.7% in experiment [3].

For `COC(=O)c1c(C)oc2c1cc(NS(=O)(=O)c1ccc(Cl)cc1)c1ccccc12` [Compound 3-33], the inhibition at 5 µg/mL in experiment [1] is -0.507%; in experiment [2], 2.82%; in experiment [3], 32.8%.

With `COC(=O)c1c(C)oc2c1cc(NS(=O)(=O)c1ccc(C(=O)O)cc1)c1ccccc12` [Compound 3-34], the inhibition at 5 µg/mL in experiment [1] was -0.042%; in experiment [2], 2.85%; in experiment [3] it was 11%.

In the case of `CCOC(=O)c1c(C)oc2c1cc(NS(=O)(=O)c1c(C)cc(C)cc1C)c1ccccc12` [Compound 3-35], the inhibition at 5 µg/mL in experiment [1] amounted to 0.352%; in experiment [2], 24.5%; in experiment [3], 33.9%.

Take `CCOC(=O)c1c(C)oc2c1cc(NS(=O)(=O)c1ccc(C)cc1)c1ccccc12` [Compound 3-36]: the values for the inhibition at 5 µg/mL in experiment [1], in experiment [2] and in experiment [3] were -0.123%, -4.38% and 16.8%, respectively.

`COC(=O)c1c(C)oc2c1cc(NS(=O)(=O)c1c(C)cc(C)cc1C)c1ccccc12` [Compound 3-38]: the inhibition at 5 µg/mL in experiment [1] came out at 1.35%; in experiment [2], 14.8%; in experiment [3] it was 50.6%.

For the compound `Cc1oc2c(cc(NS(=O)(=O)c3ccc(F)cc3)c3ccccc32)c1C(=O)OC(C)C` [Compound 3-39], the inhibition at 5 µg/mL is -0.193% in experiment [1], 4.95% in experiment [2] and 42.3% in experiment [3].

Take `CCCc1oc2c(cc(NS(=O)(=O)c3ccc(C(=O)O)cc3)c3ccccc32)c1C(=O)OCC` [Compound 3-40]: the inhibition at 5 µg/mL is 0% in experiment [1], 2.52% in experiment [2] and 12.5% in experiment [3].

Take `Cc1sc(N)c2c(=O)oc3c4ccccc4ccc3c12` [Compound B09]: in experiment [1], the “growth-inhibitory effect on SUM-159 (in words)” value was “almost no growth-inhibitory effect” and the IC50 was over 40 µM. In experiment [2] (MCF7, 72 h, non-TNBC breast cancer cell line, CCK-8, 72 h), this compound gave an IC50 of 1.45 µM. In addition, in experiment [3], the “growth-inhibitory effect on MDA-MB-231 (in words)” value is on record as “almost no growth-inhibitory effect” and the IC50 was about 20 µM.
